One series relates to oedème. The series is described as follows: Clinical evaluation of occurrence and severity of oedema after injection of hyaluronic acid compositions. Also noted: species or system patients. To be noted: human, in vivo. As to the method:
(§1) Deux types de composition aqueuse à base d'acide hyaluronique (concentration 20 mg/g) sont préparés.
(§2) Toutes les compositions sont issues d'un mélange monophasique tel que celui décrit dans la demande de brevet WO 2009/071697 au nom de la demanderesse, et comprennent du mannitol (concentration 35 mg/g).
(§3) Deux groupes A et B de 64 patients chacun sont formés (128 patients au total).
(§4) Le groupe B est injecté au niveau du sillon naso-génien au moyen de la composition aqueuse à base d'acide hyaluronique comprenant du mannitol et de la mépivacaïne

The test system of a further series is ecchymose. The series is described as follows: Clinical evaluation of occurrence and severity of ecchymosis after injection of hyaluronic acid compositions. Further details: species or system patients. To be noted: human, in vivo. As to the method:
as §1, §2, §3, §4

Here are results for 1 substance from patent EP3315130A1, “HYALURONIC ACID COMPOSITION INCLUDING MEPIVACAINE” (Laboratoires Vivacy, priority 2016, dated 2018).

For the substance mépïvacaïne, in the series with oedème, the “OEdème - Aucun” value came to 63, the “OEdème - Léger ou modéré” value was determined as 1 and the “OEdème - Sévère” value was 0. For the same substance, in the series on ecchymose, the “Ecchymose - Aucune” value came to 42, the “Ecchymose - Légère ou modérée” value is reported as 22 and the “Ecchymose - Sévère” value amounted to 0.
